Laboratory results as given in article PMC9952391, “The Role of Acetyl Zingerone and Its Derivatives in Inhibiting UV-Induced, Incident, and Delayed Cyclobutane Pyrimidine Dimers” (Antioxidants, 2023).

How the values were obtained:
[1] = tested on: MMP-1; parameters: method as in PMID 31465741; settings: in vitro assays; cited from earlier work
[2] = tested on: nitrotyrosine / nitric oxide synthase (NOS) activity in Mel-a melanocytes; assay: Immunofluorescence for nitrotyrosine (marker of NOS activity); assay type: cell-based, mouse; settings: 50 µg/mL, 24–36 h
Protocol: Posttranslational modification nitrotyrosine was used as a marker of nitric oxide synthase (NOS) activity. Melanocytes were cultured on collagen-coated, glass-bottom dishes (cat. P35G-1.5-14-C, MatTek, Ashland, MA, USA). After various treatments, cells were fixed with 4% formaldehyde for 10 min at RT, washed with PBS, and permeabilized with 0.5% Triton-X in PBS for 10 min. After blocking for non-specific antibody binding using 5% goat serum (Cat. 16210064, ThermoFisher Scientific) and 1% globulin free BSA (Cat. 001-000-161, Jackson ImmunoResearch, West Grove, PA, USA) in 0.1% Triton-x in PBS (blocking buffer) for 2 h at room temperature, cells were incubated with 1:1000 dilution of anti-nitrotyrosine antibody (Cat. A-21285, ThermoFisher Scientific) overnight at 4 °C. Detection was conducted using Alexa Fluor 488 Goat Anti-rabbit IgG (Cat. A-11008, Life Technologies). Imaging was performed using a ZEISS Axio Observer microscope. Approximately 5–10 images per condition, with ~70–100 cells per image, were quantitated for nitrotyrosine fluorescence using ImageJ software.

[3] = tested on: human keratinocytes (HaCaT); assay: Cell survival assay (Alamar blue), keratinocytes; assay type: cell-based; settings: 24 h pre-incubation, Supplementary Figure S2
[4] = tested on: melanin in Mel-a cells; assay: Melanin amount in melanocytes cultured in varied tyrosine; assay type: cell-based; settings: 50 µg/mL
Protocol: The amino acid tyrosine is essential for melanin synthesis, and it is added to the OptiMem medium at a proprietary concentration by ThermoFisher. Assuming this concentration to be “100% tyrosine”, we purchased the “custom-prepared, tyrosine-free” medium from ThermoFisher. This medium lacked tyrosine or its precursors, which include L-tyrosine, L-tyrosine-2Na-2H2O, L-tyrosine-Di-sodium salt, Hypoxanthine, and Sodium Hypoxanthine. Mel-a (pigmented mouse melanocyte) cells were cultured in regular cell culture medium containing 100% tyrosine, and in medium containing 20%, 4%, or 0% of the total tyrosine amount. This was achieved by diluting the regular OptiMem with the one containing no tyrosine (tyrosine-free, 0% tyrosine). […] Since the cells cultured in 0%-tyrosine medium lost their pigment over time (Figure 5) and the cell pellets were almost white or opaque in color, we assumed that the minimal amount of tyrosine from the horse serum used in the cell culture medium was not sufficient for melanin synthesis. To estimate the amount of melanin, 3 × 10^6–5 × 10^6 cells were lysed in 1M sodium hydroxide (NaOH) by heating them at 100 °C for 1–2 h, which was followed by a 10-min spin at 14,000 rpm at room temperature to remove any cell debris. Absorbance of the supernatant was recorded using the supernatant in a 96-well plate in triplicates from each sample, at 460–490 nm. Synthetic melanin (Cat. M0418, Sigma) was dissolved in methanol and used as a positive control to generate standard curves to estimate the melanin amount in cell lysates. The number of cells in each pellet was used as a normalization factor for each experimental condition. In a complementary experiment, cells were first bleached out of melanin completely by culturing them in tyrosine-free medium, followed by 100/20/4/0% tyrosine (not shown) treatment. This seemed to be cytotoxic, comparatively more so in 100% tyrosine, probably owing to the toxicity of the sudden rush of melanin derivatives and the oxidative stress generated during melanin synthesis.

[5] = tested on: Xpa, Xpc, Mitf, Xrcc1 expression in Mel-c; assay: qPCR expression of NER pathway genes, Mel-c; assay type: cell-based, mouse; settings: 24 h incubation
Protocol: (§1) Various cell types were collected 24-h post incubation with 200 µg/mL AZ and MBPD, with and without ssUV exposure. RNA was isolated using a Quick-RNA isolation kit (Cat. R1050, Zymo Research). The cDNA was prepared using a High-Capacity cDNA Reverse Transcription Kit (Cat. 4368814, ThermoFisher Scientific). The gene expression of XPA, XPC, and MITF genes was assessed using the following primers. β-actin was used as an internal control for normalizations and data analyses. F1-R1 and F2-R2 represents two primer pairs which were used in the qPCR experiments.

[6] = tested on: incident CPDs (iCPDs) in HaCaT cells; assay: iCPD assessment by DNA ELISA after ssUV, HaCaT; assay type: cell-based, human; settings: 250 µg/mL, 24 h preincubation
Text: (§2) For UV exposures, we used a “SOL-UV6 ultraviolet solar simulator” from Newport irradiators. It is equipped with a Xenon arc lamp where the output is varied using the integrated variable attenuator aperture, which provides the ability to vary the output from 10% to 100% of the maximum available solar constants. The output spectrum is flat from 320 nm to 400 nm and no values are below 300 nm. This is abbreviated as “ssUV” for “solar-simulated UV” throughout the text. Various cell types seeded at ~50% confluency, were treated with the AZ and analogs at concentrations mentioned in the data figures for 24–h. Cells at ~80–90% confluency (untreated controls), were washed twice with PBS and exposed to 18 kJ/m^2 of ssUV in minimal amount of PBS (ex. 2 mL PBS in a 60 mm cell culture dish) without any dish lid in place. […] The ssUV apparatus was monitored almost daily using UV meters for any emissions below 300 nm. The dose was decided based upon the 80–90% cell survival post UV exposure. After exposure, one time point was collected immediately to assess iCPDs, whereas more dishes were incubated in cell culture medium, inside the cell culture incubator, for various time points to be collected post UV to assess dCPDs. For dCPD induction, it is important that the cell culture incubator is not opened for at least 30 min (the first time point post UV) to avoid possible interference from the CO2/O2 ratio, which will be altered upon opening the incubator doors. Cells were collected by scraping and washed once with PBS, which was followed by DNA isolation using a Quick DNA miniprep Kit (Cat. D3024, Zymo Research, Irvine, CA, USA). CPDs were assessed using our previously established DNA ELISA protocols. In brief, ELISA was performed using mouse monoclonal Anti-CPD (Cat. CAC-NM-DND-001, Clone TDM-2, CosmoBio, Inc., Carlsbad, CA, USA). […] A measure of 50 µL of 2M H2SO4 was used to stop the reaction as soon as the color developed (5–10 min incubation in substrate), and OD was measured at 490 nm using a Synergy-2 multimode microplate reader (BioTek, Winooski, VT, USA).

[7] = tested on: incident CPDs (iCPDs) in NBHF cells; assay: iCPD assessment by DNA ELISA after ssUV, NBHF; assay type: cell-based, human
Text: (§3) For UV exposures, we used a “SOL-UV6 ultraviolet solar simulator” from Newport irradiators. It is equipped with a Xenon arc lamp where the output is varied using the integrated variable attenuator aperture, which provides the ability to vary the output from 10% to 100% of the maximum available solar constants. The output spectrum is flat from 320 nm to 400 nm and no values are below 300 nm. This is abbreviated as “ssUV” for “solar-simulated UV” throughout the text. Various cell types seeded at ~50% confluency, were treated with the AZ and analogs at concentrations mentioned in the data figures for 24–h. Cells at ~80–90% confluency (untreated controls), were washed twice with PBS and exposed to 18 kJ/m^2 of ssUV in minimal amount of PBS (ex. 2 mL PBS in a 60 mm cell culture dish) without any dish lid in place. […] The ssUV apparatus was monitored almost daily using UV meters for any emissions below 300 nm. The dose was decided based upon the 80–90% cell survival post UV exposure. After exposure, one time point was collected immediately to assess iCPDs, whereas more dishes were incubated in cell culture medium, inside the cell culture incubator, for various time points to be collected post UV to assess dCPDs. For dCPD induction, it is important that the cell culture incubator is not opened for at least 30 min (the first time point post UV) to avoid possible interference from the CO2/O2 ratio, which will be altered upon opening the incubator doors. Cells were collected by scraping and washed once with PBS, which was followed by DNA isolation using a Quick DNA miniprep Kit (Cat. D3024, Zymo Research, Irvine, CA, USA). CPDs were assessed using our previously established DNA ELISA protocols. In brief, ELISA was performed using mouse monoclonal Anti-CPD (Cat. CAC-NM-DND-001, Clone TDM-2, CosmoBio, Inc., Carlsbad, CA, USA). Flat-bottom, 96-well plates (Cat. 2801, Thermo Scientific, Waltham, MA, USA) were coated overnight with 50 µL of protamine sulphate (0.005–0.05%, Cat. P3369, Sigma, St. Lois, MO, USA) in distilled water. After washing twice with water, heat-denatured DNA was plated in triplicates from each sample, into the protamine sulphate coated plate wells (50–100 ng/well in 50 µL PBS) and incubated overnight at 37 °C. The plates were washed 5 times with 200 µL of PBST (PBS containing 0.05% Tween-20 Cat. P7949, Sigma), and blocked with 2–4% FBS in PBST (blocking buffer) for 1 h at room temperature (RT). The plates were incubated with 100 µL of a 1:1000 dilution of anti-CPD antibody in blocking buffer, and incubated for 30 min at 37 °C, which was followed by 5 washes in PBST. Next, the plates were incubated with 100 µL of a 1:2000 dilution of Biotin-F(ab’)2 fragment of anti-mouse IgG(H+L) (Cat. B-2763, Life Technologies) in blocking buffer for 30 min at 37 °C. Detection was conducted using 100 µL of a 1:10,000 dilution of Streptavidin HRP (Cat. 434323, Life Technologies) in 2% FBS for 30 min at 37 °C, which was followed by 5 washes. The plates were washed once with citrate phosphate buffer (24.3 mM citric acid monohydrate, J.T. Baker Cat. 0110-01- and 51.4-mM sodium phosphate dibasic, Sigma Cat. S7907, pH 5.0). The o-phenylene diamine dihydrochloride (Cat. P8287-50TAB, Sigma) was used as a HRP substrate at 400 µg/mL in citrate phosphate buffer for 5–10 min. A measure of 50 µL of 2M H2SO4 was used to stop the reaction as soon as the color developed (5–10 min incubation in substrate), and OD was measured at 490 nm using a Synergy-2 multimode microplate reader (BioTek, Winooski, VT, USA).

[8] = tested on: Xpa, Xpc, Mitf, Xrcc1 expression in Mel-a; assay: qPCR expression of NER pathway genes, Mel-a; assay type: cell-based, mouse
Protocol: as §1

[9] = tested on: incident CPDs (iCPDs) in albino C57BL/6 melanocytes (Mel-c); assay: iCPD assessment by DNA ELISA after ssUV, Mel-c; assay type: cell-based, mouse; settings: various doses up to 1 mg/mL, 24 h, Figure 4B
Text: as §2

[10] = tested on: MMP-3; parameters: method as in PMID 31465741; settings: in vitro assays; cited from earlier work
[11] = tested on: MMP-12; parameters: method as in PMID 31465741; settings: in vitro assays; cited from earlier work
[12] = tested on: melanocytes; parameters: method as in PMID 31538664; settings: 25 µg/mL; cited from earlier work
[13] = tested on: incident CPDs (iCPDs) in pigmented C57BL/6 melanocytes (Mel-a); assay: iCPD assessment by DNA ELISA after ssUV, Mel-a; assay type: cell-based, mouse
Text: as §3

[14] = tested on: delayed (dark) CPDs (dCPDs) in Mel-a cells; assay: dCPD assessment by DNA ELISA post ssUV, Mel-a; assay type: cell-based, mouse; settings: Mel-a, 50 µg/mL, 24–36 h preincubation, 0.5 to 4 h post ssUV, Figure 4C
Text: as §2

COc1cc(CC(C(C)=O)C(C)=O)ccc1O [AZ, 3-(4-Hydroxy-3-methoxybenzyl)-pentane-2,4-dione]
Inhibition of MMP-1 activity [1]: inhibited | Amount of nitrotyrosine (NOS activity marker) [2]: reduced the amount of nitrotyrosine | Cytotoxicity at 1000 µg/ml [3]: cytotoxic | Impact on melanin ([4]; different tyrosine variations): did not show any impact | Cell death on longer incubation ([4]; 2–3 weeks incubation): 10–15% | Gene expression of Xrcc1 [5]: remained unaffected | Gene expression of Xpa, Xpc and Mitf (NER pathway) ([5]; no UV): remained unaffected | Blockade of iCPDs [6]: ~ 50% | Blockade of iCPDs ([7]; 1 mg/mL, 24 h preincubation): ~ 50% | iCPD inhibition across doses ([7]; various doses, Figure 3C / Supplementary Figure S2B): minimal effect | NER pathway gene expression post UV exposure ([8]; 200 µg/ml, 24 h, then 18 kJ/m2 ssUV, various time points, relative to UV-induced upregulation): elevated slightly | Gene expression of Xpa, Xpc and Mitf (NER pathway) ([8]; 24 h incubation, no UV, qPCR): upregulated | Gene expression of Xrcc1 ([8]; 24 h incubation, qPCR): remained unaffected | iCPD inhibition across doses [9]: no significant impact | Inhibition of MMP-3 activity [10]: inhibited | Inhibition of MMP-12 activity [11]: inhibited | Effect on iCPDs [12]: without any significant effect | Inhibition of delayed or dark CPDs (dCPDs) [12]: inhibition | Blockade of iCPDs ([13]; 50 µg/mL, 24-h preincubation, 18 kJ/m^2 ssUV): ~ 30% | iCPD inhibition across doses ([13]; various doses up to 1 mg/mL, 24 h, Figure 4A): blocked iCPD generation in a dose-dependent manner | Inhibition of delayed CPDs (dCPDs) [14]: inhibited dCPD formation almost completely

COc1ccc(CC(C(C)=O)C(C)=O)cc1OC [DMBPD, 3-(3,4-Dimethoxy-benzyl)-pentane-2,4-dione]
Inhibition of iCPD formation ([7]; 50 µg/mL, 24 h preincubation, 18 kJ/m^2 ssUV, Figure 3B): inhibited iCPD formation to varying extents
